Strand notation (5' to 3'): a small letter for the sugar, then the base; units joined by * are phosphorothioate-linked, units joined directly phosphodiester-linked; [ ] holds rarer units or linkages, { } end groups; capitals alone tell only the bases. k = constrained ethyl (cEt); [5mC] = 5-methylcytosine; d = 2'-deoxy (DNA)
Columns and labels:
[1] = tested on: Yap1 mRNA; experiment: Inhibition of human Yap1 mRNA in SNU449 hepatocellular carcinoma xenograft tumors (Example 26); format: in vivo; conditions: SNU449 xenografts in NSG mice, 50 mg/kg twice weekly for five days, relative to PBS treated animals
Summary of the method: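 Female NSG mice bearing subcutaneous SNU449 xenografts (about 100 mm^3) dosed with modified oligonucleotides at 50 mg/kg twice weekly for five days, four per group. Tumour Yap1 mRNA measured by RT-qPCR, normalized to actin-beta, expressed as % of PBS-treated controls.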

[2] = Cynomolgus monkey tolerability, hematology (Example 34); format: in vivo, cynomolgus monkeys; conditions: for BAS / EOS / HCT / HGB / LUC / LYM / MCH / MCHC / MCV / MON / NEU / PLT / RBC / RCDW / Retic / WBC: cynomolgus monkey, in vivo, sc, 35 mg/kg; for MPV: cynomolgus monkeys, 35 mg/kg subcutaneously, day 44
Protocol: To evaluate any effect of Ionis oligonucleotides in cynomolgus monkeys on hematologic parameters, blood samples of approximately 0.5 mL of blood was collected from each of the available study animals on day 44. The samples were collected in tubes containing K2-EDTA. Samples were analyzed for red blood cell (RBC) count, Hemoglobin (HGB), Hematocrit (HCT), Mean corpuscular volume (MCV), mean corpuscular hemoglobin (MCH), mean corpuscular hemoglobin concentration (MCHC), RBC Distribution Width (RCDW), reticulocyte count (Retic), platelet count (PLT), mean platelet volume (MPV), white blood cells (WBC) count, individual white blood cell counts, such as that of monocytes (MON), neutrophils (NEU), lymphocytes (LYM), eosinophils (EOS), basophils (BAS), and large unstained cells (LUC) using an ADVIA2120i hematology analyzer (Siemens, USA).

[3] = Cynomolgus monkey tolerability, coagulation (Example 34); format: in vivo; conditions: cynomolgus monkeys, 35 mg/kg subcutaneously, day 44
Protocol: To evaluate effect of Ionis modified oligonucleotides on coagulation in cynomolgus monkeys, blood samples of approximately 0.9 mL were collected from each of the available study animals on day 44. The samples were collected in tubes containing 3.2% sodium citrate. Coagulation parameters tested include Activated partial thromboplastin time (APTT), prothrombin time (PT) and Figrinogen (FIB).

[4] = tested on: Yap1 mRNA; experiment: Yap1 mRNA in SCC25 cells, RNA analysis (Example 25); format: cell-based, human; conditions: free uptake, 48 hours, RTS4814, normalized to actin-beta
Protocol: Modified oligonucleotides described in the studies above were tested at various doses in squamous cell carcinoma cell SCC25. A control oligonucleotide 792169 (a 3-10-3 cET gapmer with a full phosphorothioate backbone, […], designated herein as SEQ ID No.: 2940; is not complementary to any known human gene) was also tested.
Cultured SCC25 cells at a density of 5,000 cells per well were treated using free uptake with modified oligonucleotides diluted to concentrations described in the tables below. After approximately 48 hours, Yap1 mRNA levels were measured as previously described using the Human Yap1 primer-probe set RTS4814. Yap1 mRNA levels were normalized to actin-beta content, as measured by primer probe set RTS5002 (forward sequence […], designated herein as SEQ ID NO.: 20; reverse sequence […], designated herein as SEQ ID NO.: 21; probe sequence […], designated herein as SEQ ID NO.: 22). Results are presented in the tables below as percent control of the amount of Yap1 mRNA relative to untreated control cells (% UTC).

[5] = tested on: Yap1 mRNA; experiment: Dose-dependent inhibition of human Yap1 in A-431 cells (Example 24, 11,000 cells per well, RTS36584, normalized to GAPDH); format: cell-based; conditions: free uptake, 48 hours; for Yap1 mRNA, % UTC: RTS36584, normalized to GAPDH
Protocol: Modified oligonucleotides described in the studies above were tested at various doses in A-431 cells. Cultured A-431 cells at a density of 11,000 cells per well were treated using free uptake with modified oligonucleotides diluted to concentrations described in the tables below. After approximately 48 hours, Yap1 mRNA levels were measured as previously described using the Human Yap1 primer-probe set RTS36584. Yap1 mRNA levels were normalized to GAPDH content, as measured by primer probe set RTS104 (forward sequence […], designated herein as SEQ ID NO.: 17; reverse sequence […], designated herein as SEQ ID NO.: 18; probe sequence […], designated herein as SEQ ID NO.: 19). Results are presented in the tables below as percent control of the amount of Yap1 mRNA relative to untreated control cells (% UTC). IC50s were calculated using a linear regression on a log/linear plot of the data in excel.

[6] = Cynomolgus monkey tolerability, kidney and liver function markers (Example 34); conditions: cynomolgus monkeys, 35 mg/kg subcutaneously, day 44
Protocol: Prior to the study, the monkeys were kept in quarantine during which the animals were observed daily for general health. The monkeys were 2-4 years old and weighed 2-4 kg. Eleven groups of 4 randomly assigned male cynomolgus monkeys each were injected subcutaneously with Ionis oligonucleotide or saline in a clock-wise rotation between four different sites on the back. Following loading doses on days 1, 3, 5 and 7, the monkeys were dosed once per week (on days 14, 21, 28, 35, and 42) with 35 mg/kg of Ionis oligonucleotide.
To evaluate the effect of Ionis oligonucleotides on hepatic and kidney function, blood samples were collected from all the study groups on day 44. The monkeys were fasted overnight prior to blood collection. Blood was collected in tubes without anticoagulant for serum separation. The tubes were kept at room temperature for a minimum of 90 minutes and then centrifuged at 3000 rpm for 10 minutes to obtain serum. Levels of various liver function markers were measured using a Toshiba 200FR NEO chemistry analyzer (Toshiba Co., Japan).

958499 (ATTAGAGTATGTGGCA; 3-10-3 cEt gapmer, further chemistry not given here) [compound 958499]
Yap1 mRNA in tumors, % control [1]: 54 % control | BAS [2]: 0.4% | EOS [2]: 1.1% | HCT [2]: 43% | HGB [2]: 12 g/dL | LUC [2]: 1.2% | LYM [2]: 44% | MCH [2]: 22 pg | MCHC [2]: 29 g/dL | MCV [2]: 77 fL | MON [2]: 3.5% | NEU [2]: 49% | PLT [2]: 399 10^3/μL | RBC [2]: 5.6e+06 µL⁻¹ | RCDW [2]: 12% | Retic [2]: 1.5% | WBC [2]: 12000 µL⁻¹ | MPV [2]: 7.6 fL | APTT [3]: 18 s | FIB [3]: 275 mg/dL | PT [3]: 9 s | Yap1 mRNA, % UTC ([4]; 0.04 μM): 47 % UTC | Yap1 mRNA, % UTC ([4]; 0.2 μM): 22 % UTC | Yap1 mRNA, % UTC ([4]; 1 μM): 10 % UTC | Yap1 mRNA, % UTC ([4]; 5 μM): 4 % UTC | Yap1 mRNA, % UTC ([5]; 0.002 μM): 1 % UTC | Yap1 mRNA, % UTC ([5]; 0.008 μM): 3 % UTC | Yap1 mRNA, % UTC ([5]; 0.04 μM): 28 % UTC | Yap1 mRNA, % UTC ([5]; 0.2 μM): 91 % UTC | Yap1 mRNA, % UTC ([5]; 1 μM): 117 % UTC | IC50 ([5]; linear regression on a log/linear plot): 30 nM | ALB [6]: 4.0 g/dL | ALP [6]: 1449 IU/L | ALT [6]: 67 IU/L | AST [6]: 73 IU/L | BUN [6]: 24 mg/dL | CREA [6]: 0.9 mg/dL | GGT [6]: 67 IU/L | GLO [6]: 3.2 g/dL | GLU [6]: 83 mg/dL | HDL [6]: 89 mg/dL | LDL [6]: 46 mg/dL | TBIL [6]: 0.2 mg/dL | TG [6]: 41 mg/dL | TP [6]: 7.2 g/dL

715487 (kA*kT*kT*dA*d[5mC]*dT*dT*d[5mC]*dA*dT*dA*dG*d[5mC]*kT*kT*kA) [compound 715487]
Yap1 mRNA in tumors, % control [1]: 61 % control

1076453 (GTAATATTGCAATCTG; 3-10-3 cEt gapmer, further chemistry not given here) [compound 1076453]
Yap1 mRNA in tumors, % control [1]: 56 % control | BAS [2]: 0.4% | EOS [2]: 1.1% | HCT [2]: 43% | HGB [2]: 13 g/dL | LUC [2]: 1.2% | LYM [2]: 54% | MCH [2]: 23 pg | MCHC [2]: 29 g/dL | MCV [2]: 79 fL | MON [2]: 3.9% | NEU [2]: 39% | PLT [2]: 358 10^3/μL | RBC [2]: 5.5e+06 µL⁻¹ | RCDW [2]: 15% | Retic [2]: 1.2% | WBC [2]: 10000 µL⁻¹ | MPV [2]: 8.4 fL | APTT [3]: 20 s | FIB [3]: 234 mg/dL | PT [3]: 9 s | Yap1 mRNA, % UTC ([4]; 0.04 μM): 59 % UTC | Yap1 mRNA, % UTC ([4]; 0.2 μM): 21 % UTC | Yap1 mRNA, % UTC ([4]; 1 μM): 7 % UTC | Yap1 mRNA, % UTC ([4]; 5 μM): 3 % UTC | Yap1 mRNA, % UTC ([5]; 0.002 μM): 0 % UTC | Yap1 mRNA, % UTC ([5]; 0.008 μM): 1 % UTC | Yap1 mRNA, % UTC ([5]; 0.04 μM): 23 % UTC | Yap1 mRNA, % UTC ([5]; 0.2 μM): 74 % UTC | Yap1 mRNA, % UTC ([5]; 1 μM): 89 % UTC | ALB [6]: 3.9 g/dL | ALP [6]: 1173 IU/L | ALT [6]: 53 IU/L | AST [6]: 76 IU/L | BUN [6]: 27 mg/dL | CREA [6]: 0.9 mg/dL | GGT [6]: 78 IU/L | GLO [6]: 3.1 g/dL | GLU [6]: 89 mg/dL | HDL [6]: 98 mg/dL | LDL [6]: 66 mg/dL | TBIL [6]: 0.2 mg/dL | TG [6]: 29 mg/dL | TP [6]: 7.0 g/dL
